Laboratory results taken from patent USRE45612E1, “Corrosion inhibitor composition applicable for aluminum and steel protection and procedure” (MD FIFTH WARD PROPERTIES, INC., priority 2001, dated 2015).

Assays:
[1] = Salt spray exposure (ASTM B-117) of scribed coil primers, service life of coating; details: on galvanized steel, relative to Sr-doped amorphous silica
Method: Steel Co.), at 0.6-0.7 mil dry film thickness, aged for at least 2 (two) days at room temperature, scribed and subsequently subjected to salt spray exposure (according to ASTM B-117). The scribes were applied in the typical cross form, and, in order to cut through the protective galvanic zinc coating from the area of the scribes, at appropriate depth. During salt spray exposure, the coatings' physical state was assessed periodically by visual examination. […] Service life of a coating is considered directly proportional to the related pigments' or additives' corrosion inhibitor performance, which is conveniently qualified by Ei, the Inhibitor Efficiency Index, defined as: […]

[2] = pH of saturated extract / leachate of the pigment; assay type: physicochemical
[3] = Solubility in water of the pigment; assay type: physicochemical
[4] = Salt spray exposure (ASTM B-117) of scribed aircraft primers containing the inhibitor pigment; details: 2000 hours salt spray, scribe area
Method: The test was performed in a typical two component aircraft primer formulation, specifically recommended for aluminum protection. […] By visual examination of their physical state at the end of the test period, the coatings' corrosion inhibitor performance, considered directly proportional to the tested pigment components' corrosion inhibitive activity, was qualified. The scribed area was especially examined and the absence or presence of corrosion products, respectively, was interpreted as display of, or absence of, the respective corrosion inhibitor pigment's “throw power”. It will be apparent that the “throw power” is the discriminative characteristic of effective corrosion inhibitor pigments.

SMILES: C1CCC(NC2CCCCC2)CC1.S=c1[nH]c(=S)[nH]c(=S)[nH]1 [Example 7, Di-cyclohexyl mono-ammonium salt of trithiocyanuric acid]
- extension of service life of coil coatings over Sr-doped amorphous silica [1]: 200%

SMILES: [S-]c1nnc(S)s1.[S-]c1nnc(S)s1.[Zn+2] [Example 1, Zn(DMTD)2]
- pH (saturated extract) [2]: 4.5-5.0
- solubility in water, at 24° C. [3]: 400 µg/mL

SMILES: Sc1nnc(S)s1 [DMTD, 2,5-dimercapto-1,3,4 thiadiazole]
- "Throw Power" Observed [4]: displayed throw power
